Measurements as given in publication PMC5460289, “Identification of New Shikonin Derivatives as Antitumor Agents Targeting STAT3 SH2 Domain” (Scientific Reports, 2017).

Legend:
Format in all cases: cell-based, human
MDA-MB-231 cells = assay: Mitochondrial transmembrane potential by JC-1 staining; conditions: 4 h treatment, control 92.3%
Method: Subsequently, the mitochondrial transmembrane potential was monitored using JC-1 staining. […] Red fluorescence represents the mitochondrial aggregate form of JC-1 with high ∆Ψm in normal cells. Green fluorescence represents the monomeric form of JC-1 with low ∆Ψm in apoptotic cells.
Figure 5 Mitochondrial transmembrane potential was analysed in PMM-172-treated MDA-MB-231 cells by JC-1 staining. TEXT PRINTED IN THE PICTURE: no label printed: Q1 1.74% (0 μM); Q2 92.3% (0 μM); Q4 0.011% (0 μM); Q3 5.94% (0 μM); Q1 1.88% (2 μM); Q2 73.3% (2 μM); Q4 0.179% (2 μM); Q3 24.6% (2 μM); Q1 1.88% (4 μM); Q2 64.6% (4 μM); Q4 0.227% (4 μM); Q3 33.3% (4 μM); Q1 0.436% (8 μM); Q2 21.3% (8 μM); Q4 0.016% (8 μM); Q3 78.2% (8 μM) DOUBTS OF THE COPYIST ABOUT THIS PICTURE: The picture prints no label for the substance; the plots are told apart only by concentration (0, 2, 4, 8 μM), and the 0 μM plot is the untreated control. / The quadrant percentages are printed very small, so 3, 5, 6, 8 and 9 cannot be told apart with certainty and all readings are best readings: 0 μM: Q1 1.74%, Q2 92.3%, Q3 5.94%, Q4 0.011%; 2 μM: Q1 1.88%, Q2 73.3%, Q3 24.6%, Q4 0.179%; 4 μM: Q1 1.88%, Q2 64.6%, Q3 33.3%, Q4 0.227%; 8 μM: Q1 0.436%, Q2 21.3%, Q3 78.2%, Q4 0.016% […]

[1] = tested on: IL-6-induced STAT3 phosphorylation in MDA-MB-231 cells; assay: IL-6 induction of STAT3 phosphorylation (Western blot); conditions: 2 μM pretreatment 24 h, IL-6 (20 ng/mL) 30 min
Method: Figure 6 (A) PMM-172 suppressed constitutive pSTAT3 (Tyr705) in a dose-dependent manner. (B) PMM-172 suppressed constitutive pSTAT3 (Tyr705) in a time-dependent manner. (C) MDA-MB-231 cells were treated with IL-6 (20 ng/mL) or vehicle for 30 min, with or without pretreatment with PMM-172 (2 μM) for 24 h. PMM-172 inhibited IL-6 induced phosphorylation of STAT3. (D) Stattic suppressed constitutive pSTAT3 (Tyr705) in a dose-dependent manner. (E) Stattic suppressed constitutive pSTAT3 (Tyr705) in a time-dependent manner. (F) Tyrosine phosphorylation of two STAT family proteins STAT1 and STAT5 were detected with specific antibodies. […] Data were shown as mean ± SD of three independent experiments. *P < 0.05, **P < 0.01. Cropped blots/gels were used in the figure and the gels had been run under the same experimental conditions; the full-length blots/gels are presented in Supplementary Figure S2.
We further investigated whether PMM-172 could inhibit IL-6-induced STAT3 phosphorylation in MDA-MB-231 cells.
Cells were seeded in 10 cm plates and allowed to adhere overnight. The following day, the specimen was serum starved for 24 h. The specimen was then treated with or without tested agents at the dose of 2 μM. […] Cells were then harvested after 30 min and analyzed by Western blot.

pSTAT3 in MCF-10A cells = assay: Western blot of pSTAT3 in non-tumorigenic cells; conditions: 24 h, increasing doses
Method: Figure 7 MDA-MB-231 cells were treated with indicated concentrations of PMM-172 or Stattic for 24 h, the expression levels of STAT3 in cytoplasmic and nuclear extracts were examined and relative expression levels were analyzed by Image J software. β-actin and Lamin B1 served as markers of cytoplasmic and nuclear extractions, respectively. […] (C) MCF-10A cells were treated with the indicated concentrations of PMM-172 for 24 h. PMM-172 had no effect on the level of the pSTAT3 level in MCF-10A cells. […] Data were shown as mean ± SD from three independent experiments, **P < 0.01. Cropped blots/gels were used in the figure and the gels had been run under the same experimental conditions; the full-length blots/gels are presented in Supplementary Figure S3.
In the following work, we examined whether PMM-172 could affect the activity of STAT3 and viability in non-cancer cells. The non-tumorigenic MCF-10A epithelial cells were employed to be treated with increasing doses of PMM-172 to conduct this assay.
Cells were rinsed twice with cold PBS and then lysed with RIPA buffer containing a protease inhibitor mixture at 1:100 dilution on ice for 30 min. Insoluble components of cell lysates were removed by centrifugation (4 °C, 12000 rmp, 10 min), and protein concentrations were measured using a Pierce BCA protein assay kit. […]

COc1cc(OC)cc(-c2nnc(SCC(=O)O[C@H](CC=C(C)C)C3=CC(=O)c4c(O)ccc(O)c4C3=O)o2)c1 [PMM-172, (R)-1-(5,8-dihydroxy-1,4-dioxo-1,4-dihydronaphthalen-2-yl)-4-methylpent-3-en-1-yl 2-((5-(3,5-dimethoxyphenyl)-1,3,4-oxadiazol-2-yl)thio)acetate]
JC-1 quadrant Q2 (ratio of cells with high membrane potential) (MDA-MB-231 cells; 4 μM): 64.6%
JC-1 quadrant Q2 (ratio of cells with high membrane potential) (MDA-MB-231 cells; 8 μM): 21.3%
IL-6-induced STAT3 phosphorylation [1]: suppressed IL-6-induced STAT3 phosphorylation
expression levels of total STAT3 in MCF-10A cells (pSTAT3 in MCF-10A cells): kept unchanged
pSTAT3 level in MCF-10A cells (pSTAT3 in MCF-10A cells): had no effect
